The text below walks through data of patent US10011629B2, “Nucleoside analogs for treatment of the flaviviridae family of viruses and cancer” (Cocrystal Pharma, Inc., priority 2015, dated 2018).

In data set [1] the test system is mitochondrial DNA (COXII gene) in HepG2 cells. Put plainly: Mitochondrial DNA level in HepG2 cells (real-time PCR). As for the experimental part: This assay was used in all studies described in this application that determine the effect of compounds on mitochondrial DNA content. In this assay, low-passage-number HepG2 cells were seeded at 5,000 cells/well in collagen-coated 96-well plates. Test compounds were added to the medium to obtain final concentrations of 0 μM, 0.1 μM, 10 μM and 100 μM. […] The mitochondrial cytochrome c oxidase subunit II (COXII) gene and the ß-actin or rRNA gene were amplified from 5 μl of the eluted nucleic acids using a multiplex Q-PCR protocol with suitable primers and probes for both target and reference amplifications. […] For exon 3 of the ß-actin gene (GenBank accession number E01094) the sense, probe, and antisense primers are 5′-[…]-3′ (SEQ ID NO. 4), 5′-6-[…]-3′ (SEQ ID NO. 5) and 5′-[…]-3′ (SEQ ID NO. 6), respectively. The primers and probes for the rRNA gene are commercially available from Applied Biosystems. […] The arithmetic formula for this approach is given by 2-ΔΔCT, where ΔΔCT is (CT for average target test sample−CT for target control)−(CT for average reference test−CT for reference control) (see Johnson M R, K Wang, J B Smith, M J Heslin, R B Diasio. Quantitation of dihydropyrimidine dehydrogenase expression by real-time reverse transcription polymerase chain reaction. Anal. Biochem. 2000; 278:175-184). A decrease in mitochondrial DNA content in cells grown in the presence of drug indicated mitochondrial toxicity.

Data set [2] has as its system nuclear DNA (ß-actin or rRNA gene) in HepG2 cells. The data set can be described thus: Nuclear DNA level in HepG2 cells (real-time PCR). The conditions noted are these: Homo sapiens, HepG2, 336 h. Format: cell-based, human. As for the experimental part:
This assay was used in all studies described in this application that determine the effect of compounds on mitochondrial DNA content. In this assay, low-passage-number HepG2 cells were seeded at 5,000 cells/well in collagen-coated 96-well plates. Test compounds were added to the medium to obtain final concentrations of 0 μM, 0.1 μM, 10 μM and 100 μM. […] The mitochondrial cytochrome c oxidase subunit II (COXII) gene and the ß-actin or rRNA gene were amplified from 5 μl of the eluted nucleic acids using a multiplex Q-PCR protocol with suitable primers and probes for both target and reference amplifications. […] For exon 3 of the ß-actin gene (GenBank accession number E01094) the sense, probe, and antisense primers are 5′-[…]-3′ (SEQ ID NO. 4), 5′-6-[…]-3′ (SEQ ID NO. 5) and 5′-[…]-3′ (SEQ ID NO. 6), respectively. The primers and probes for the rRNA gene are commercially available from Applied Biosystems. […] The comparative CT method uses arithmetic formulas in which the amount of target (COXII gene) is normalized to the amount of an endogenous reference (the B-actin or rRNA gene) and is relative to a calibrator (a control with no drug at day 7). The arithmetic formula for this approach is given by 2-ΔΔCT, where ΔΔCT is (CT for average target test sample−CT for target control)−(CT for average reference test−CT for reference control) (see Johnson M R, K Wang, J B Smith, M J Heslin, R B Diasio. Quantitation of dihydropyrimidine dehydrogenase expression by real-time reverse transcription polymerase chain reaction. Anal. Biochem. 2000; 278:175-184). A decrease in mitochondrial DNA content in cells grown in the presence of drug indicated mitochondrial toxicity.

The subject of data set [3] is HepG2 cells. The data set can be described thus: Lactic acid production in HepG2 cells. The class given is cell-based, human. The conditions noted are these: 14-day assay. As for the experimental part:
To measure the effects of the compounds on lactic acid production, HepG2 cells from a stock culture were diluted and plated in 12-well culture plates at 2.5×10^4 cells per well. […] […] The culture medium was then filtered, and the lactic acid content in the medium was determined using a colorimetric lactic acid assay (Sigma-Aldrich). Since lactic acid product can be considered a marker for impaired mitochondrial function, elevated levels of lactic acid production detected in cells grown in the presence of test compounds would indicate a drug-induced cytotoxic effect.

Data set [4] can be described thus: Assay for bone marrow cytotoxicity. The class given is cell-based, human. As to conditions: human; organization LOBP; read-out: Bone marrow toxicity, CC50. As for the experimental part: (§1) Primary human bone marrow mononuclear cells can be obtained commercially from Cambrex Bioscience (Walkersville, Md.). CFU-GM assays is carried out using a bilayer soft agar in the presence of 50 units/mL human recombinant granulocyte/macrophage colony-stimulating factor, while BFU-E assays used a […] matrix containing 1 unit/mL erythropoietin (see Sommadossi J P, Carlisle R. Toxicity of 3′-azido-3′-deoxythymidine and 9-(1,3-dihydroxy-2-propoxymethyl) guanine for normal human hepatopoietic progenitor cells in vitro. Antimicrob. Agents Chemother. 1987; 31: 452-454; Sommadossi, J P, Schinazi, R F, Chu, C K, and Xie, M Y. Comparison of cytotoxicity of the (−) and (+) enantiomer of 2′,3′-dideoxy-3′-thiacytidine in normal human bone marrow progenitor cells. Biochem. Pharmacol. 1992; 44:1921-1925). Each experiment can be performed in duplicate in cells from three different donors. AZT is used as a positive control. […] Statistical analysis can be performed with Student's t test for independent non-paired samples.

For data set [5], the system named is Primary human bone marrow mononuclear cells. The data set can be described thus: Assay for bone marrow cytotoxicity. Format: cell-based. The conditions noted are these: organization Stem cell; read-out: Bone marrow toxicity, CC50. As for the experimental part: as §1
For data set [6], the system named is HCV 1b (Huh 7 Clone B cells containing HCV Replicon RNA). The data set can be described thus: HCV replicon assay. As to conditions: Hepatitis C virus. Format: cell-based. As for the experimental part: Huh 7 Clone B cells containing HCV Replicon RNA were seeded in a 96-well plate at 5000 cells/well, and the compounds tested at 10 μM in triplicate immediately after seeding. Following five days incubation (37° C., 5% CO2), total cellular RNA was isolated by using versaGene RNA purification kit from Gentra. Replicon RNA and an internal control (TaqMan rRNA control reagents, Applied Biosystems) were amplified in a single step multiplex Real Time RT-PCR Assay. The antiviral effectiveness of the compounds was calculated by subtracting the threshold RT-PCR cycle of the test compound from the threshold RT-PCR cycle of the no-drug control (ΔCt HCV). A ΔCt of 3.3 equals a 1-log reduction (equal to 90% less starting material) in Replicon RNA levels. The cytotoxicity of the compounds was also calculated by using the ΔCt rRNA values. 2′-C-Me-C was used as the positive control. To determine EC90 and IC50 values^2, ΔCt: values were first converted into fraction of starting material^3 and then were used to calculate the % inhibition. […]

The nature of data set [7]: Cytotoxicity in HCV replicon assay (ΔCt rRNA). The conditions noted are these: human; replicon cells; CC50; read-out: CC50 or % inhibit cytotoxicity. Format: cell-based. As for the experimental part: (§2) Huh 7 Clone B cells containing HCV Replicon RNA were seeded in a 96-well plate at 5000 cells/well, and the compounds tested at 10 μM in triplicate immediately after seeding. Following five days incubation (37° C., 5% CO2), total cellular RNA was isolated by using versaGene RNA purification kit from Gentra. Replicon RNA and an internal control (TaqMan rRNA control reagents, Applied Biosystems) were amplified in a single step multiplex Real Time RT-PCR Assay. The antiviral effectiveness of the compounds was calculated by subtracting the threshold RT-PCR cycle of the test compound from the threshold RT-PCR cycle of the no-drug control (ΔCt HCV). A ΔCt of 3.3 equals a 1-log reduction (equal to 90% less starting material) in Replicon RNA levels. The cytotoxicity of the compounds was also calculated by using the ΔCt rRNA values. 2′-C-Me-C was used as the positive control. To determine EC90 and IC50 values^2, ΔCt: values were first converted into fraction of starting material^3 and then were used to calculate the % inhibition.

For data set [8], the system named is Huh-7 cells. Put plainly: Cellular pharmacology in Huh7 cells (intracellular metabolites). As for the experimental part: Ice-cold 70% methanol was used as the extraction solvent. ddATP (10 nM) was used as the internal standard.
Data set [9] concerns cellular rRNA (internal control, measure of cytotoxicity). Put plainly: Cytotoxicity in HCV replicon assay (ΔCt rRNA). The class given is cell-based. The conditions noted are these: human. As for the experimental part: as §2
Data set [10] concerns Primary Human Hepatocytes. Put plainly: Cellular egress from Primary Human Hepatocytes. As to conditions: sofosbuvir pre-incubated 10 μM 12 h; time 48 hr. As for the experimental part: FIGS. 6a and 6b are charts and tables showing cellular egress of Compound 9 (FIG. 6a) and sofosbuvir (FIG. 6b) from Primary Human Hepatocytes. The results are of freshly plated human hepatocytes ([…]) from a donor, where the cells were plated in 24-well plates. The compounds were pre-incubated at a concentration of 10 μM for 12 h, and cells were harvested at 0, 1, 2, 4, 10, 24 and 48 hours. The results for the monophosphate are shown in grey, for the diphosphate in orange, and for the triphosphate in blue.

Where [11] appears, read: Homo sapiens, HepG2, read-out: % inhibition MitDNA.

Structures are written as SMILES. Entries after “also recorded” stand apart in the source; their conditions may differ. Where two headings read alike, the source gives them in different places.

Turning to `CC(C)OC(=O)[C@H](C)NP(=O)(OC[C@H]1O[C@@H](n2ccc(=O)[nH]c2=O)C(F)(Br)C1O)Oc1ccccc1` (stereo in doubt) [Compound 9], the “MitDNA Content (% of control)” value in data set [1] (HepG2 cells, 14-day assay, 10 μM, range in parentheses) is listed as 187 (169-206) % of control. Besides, in data set [1] (HepG2 cells, 14-day assay, 50 μM, range in parentheses), the “MitDNA Content (% of control)” value is 64 (45-91) % of control. The “Summary (mitochondrial toxicity)” value in [1] (HepG2 cells, 14-day assay, mitochondrial/nuclear DNA and lactic acid) is on record as “non-toxic up to 10 μM; also recorded: not toxic up to 10 μM”. Also, in data set [1] (setting [11]), the inhibition at 10 µM is less than 1% and the inhibition at 50 µM is 67.8%. In [2] (read-out: % inhibition nDNA), the inhibition at 10 µM worked out at 5.2% and the inhibition at 50 µM worked out at 49.8%. For the same molecule, in data set [3] (10 μM), the “Lactic acid Production (% of control)” value is 89.5 ± 2.0 % of control. Besides, in [3] (50 μM), the “Lactic acid Production (% of control)” value is reported as 111 ± 38.5 % of control. In addition, the CC50 in data set [4] is greater than 100 µM. In data set [5], the CC50 was greater than 100 µM. In addition, in [6] (Huh-7, read-out: EC90 (μM or letter value) or % inhib HCV), the concentration for an effect of 90% (EC90) is 0.1 to 1 µM. For the same molecule, the CC50 at 5 days in data set [7] is greater than 10 µM. Further, in data set [8] (human), the “intracellular 7-DP” value came out at 252 ± 14 pmol/10^6 cells, the “intracellular 7-MP” value worked out at 12.4 ± 1.5 pmol/10^6 cells, the “intracellular 7-TP” value stood at 98.2 ± 2.2 pmol/10^6 cells and the “intracellular 9” value amounted to 318.4 ± 26.6 pmol/10^6 cells.

For `Nc1ccn([C@@H]2O[C@H](CO)[C@@H](O)[C@@]2(F)Br)c(=O)n1` [Compound 15, 2′-Deoxy-2′-bromo-2′-fluoro Cytidine], the inhibition at 10 µM in data set [6] (Huh-7, HCV 1b replicon, 10 μM) came out at 99.9%. For the same molecule, in data set [9], the inhibition at 5 days, 10 µM stood at 67.9%.

On to `CC(C)OC(=O)[C@H](C)N[P@](=O)(OC[C@H]1O[C@@H](n2ccc(=O)[nH]c2=O)[C@](C)(F)[C@@H]1O)Oc1ccccc1` [Sofosbuvir, reference compound], for which the “Summary (mitochondrial toxicity)” value in [1] was “Slightly toxic”. Further, in data set [1] (setting [11]), the inhibition at 1 µM is -12%, the inhibition at 10 µM is -18% and the inhibition at 50 µM is 87%. Also, the IC50 in data set [1] (Homo sapiens, HepG2, read-out: IC50 MitDNA, HepG2 cells, 14-day assay) was found to be 36 µM. The “MitDNA Content (% of control)” value in data set [1] (human, 14 days, 1 μM) is 57 (35-93) % of control. The “MitDNA Content (% of control)” value in data set [1] (human, 14 days, 10 μM) is 78 (69-89) % of control. Moreover, the “MitDNA Content (% of control)” value in [1] (human, 14 days, 50 μM) is given as 200 (136-278) % of control. For the same molecule, in data set [2] (read-out: % inhibition nDNA), the inhibition at 1 µM is -98%, the inhibition at 10 µM was -51% and the inhibition at 50 µM is 93%. Moreover, the IC50 in [2] (read-out: IC50 nDNA, HepG2 cells, 14-day assay) is 38 µM. Also, the EC90 in [6] (Huh-7, HCV 1b replicon, numeric EC90, read-out: EC90 (μM or letter value) or % inhib HCV) came out at 0.8 µM. Further, the EC50 in data set [6] (Huh-7, HCV 1b replicon, numeric, read-out: EC50 (μM or letter value)) was determined as 0.2 µM. Moreover, in data set [8] (Huh-7 cells, 50 μM, 4 hr), the “intracellular SOF” value is listed as 206.4 ± 3.2 pmol/10^6 cells and the “intracellular SOF-nuc” value is “BLOQ”. Moreover, in data set [10], the “2′-F, 2′Me UMP” value was “BLOQ” and the MI result is given as “BLOQ”.
